Test systems include A549; ACHN; CCRF-CEM; HCC 2998; K562; M14; MCF7; MDA-MB-231; NCI-H23; NCI-H460; NCI-H522; OVCAR-4; OVCAR-5; PC-3; SF-295; SNB-75; T47D; UACC-257; UO-31.
What all share (assay): inhibition of tumour cell growth, NCI panel, 48 h

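48-hour exposure; five concentrations; linearly interpolated endpoints. GI50 is the concentration that inhibits growth by half.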 Active and inactive are the calls of the source. Cut-off read from the data, not from the text of the source: active = GI50 up to about 1.1 µM and inactive = higher.

Take `COC(=O)C1=CSC2(S1)C(C(=O)OC)=CSc1c2ss/c1=N\c1ccccc1` (stereo unspecified): the GI50 in the experiment with A549 is 2.52 µM (inactive); in the experiment with ACHN, 2.56 µM (inactive); in the experiment on CCRF-CEM, 1.6 µM (inactive); with HCC 2998 it was 1.72 µM (inactive); in the experiment with K562, 2.7 µM (inactive); in the experiment with M14, 2.02 µM (inactive). For the same compound, the GI50 is 3.79 µM (inactive) in the experiment with MCF7; 2.07 µM (inactive) in the experiment with MDA-MB-231; 2.47 µM (inactive) with NCI-H23; 3.07 µM (inactive) in the experiment with NCI-H460; 1.25 µM (inactive) in the experiment on NCI-H522; 1.87 µM (inactive) in the experiment with OVCAR-4. The GI50 in the experiment with OVCAR-5 is 3.66 µM (inactive); in the experiment with PC-3, 5.08 µM (inactive); with SF-295, 1.81 µM (inactive); with SNB-75, 2.22 µM (inactive); in the experiment with T47D, 7.64 µM (inactive); in the experiment with UACC-257, 2.43 µM (inactive). Also, in the experiment on UO-31, the GI50 was 2.52 µM (inactive).
In the case of `CC1OC(OC2C(O)COC(OC3C(C)OC(OC4C(OC(=O)[C@]56CCC(C)(C)C[C@@H]5C5=CCC7[C@@]8(C)C[C@H](O)[C@H](OC9OC(CO)C(O)C(OC%10OC(CO)C(O)C(O)C%10O)C9O)[C@@](C)(CO)[C@@H]8CC[C@@]7(C)[C@]5(C)CC6)OCC(O)C4O)C(O)C3OC3OCC(O)C(O)C3O)C2O)C(O)C(O)C1O` (stereo partly specified), the GI50 was 2.11 µM (inactive) in the experiment with A549; 5.41 µM (inactive) in the experiment on ACHN; 10.4 µM (inactive) in the experiment with CCRF-CEM; 2.07 µM (inactive) with HCC 2998; 16.7 µM (inactive) with K562; 1.87 µM (inactive) in the experiment with M14. Moreover, the GI50 in the experiment on MCF7 is 17.3 µM (inactive); with MDA-MB-231, 3.12 µM (inactive); in the experiment on NCI-H23 it was 4.04 µM (inactive); in the experiment on NCI-H460, 17.4 µM (inactive); in the experiment on NCI-H522, 9.93 µM (inactive); with OVCAR-4, 11.7 µM (inactive). Besides, the GI50 in the experiment with OVCAR-5 was 7.43 µM (inactive); with PC-3 it was 4.36 µM (inactive); with SF-295, 3.14 µM (inactive); in the experiment with SNB-75, 16 µM (inactive); in the experiment on T47D, 3.96 µM (inactive); in the experiment with UACC-257 it was 4.63 µM (inactive). Also, in the experiment with UO-31, the GI50 is 3.15 µM (inactive).
Regarding `Cn1c(=O)cc(NNc2ccccc2)[nH]c1=O`, the GI50 is > 100 µM (inactive) in the experiment on A549; 36.4 µM (inactive) in the experiment on ACHN; 34.1 µM (inactive) with CCRF-CEM; > 100 µM (inactive) in the experiment with HCC 2998; 38.2 µM (inactive) in the experiment with K562; 29.9 µM (inactive) in the experiment on M14. The GI50 in the experiment on MCF7 was 1.78 µM (inactive); with MDA-MB-231, 18.7 µM (inactive); with NCI-H23, > 100 µM (inactive); in the experiment with NCI-H460, > 100 µM (inactive); with NCI-H522, 15.1 µM (inactive); in the experiment on OVCAR-4 it was > 100 µM (inactive). The GI50 is 85.5 µM (inactive) with OVCAR-5; > 100 µM (inactive) in the experiment with PC-3; > 100 µM (inactive) in the experiment on SF-295; > 100 µM (inactive) in the experiment with SNB-75; 17.6 µM (inactive) in the experiment on T47D; 48.3 µM (inactive) in the experiment with UACC-257. For the same compound, the GI50 in the experiment on UO-31 is 83.2 µM (inactive).
`CCCCCCCCCCCCCCCC(=O)Nc1ccn(C2CCC(COP(=O)(O)OCC3OC(n4cc(F)c(=O)[nH]c4=O)CC3OC(C)=O)O2)c(=O)n1` (stereo unspecified): the GI50 is 1.67 µM (inactive) in the experiment with A549; 3.14 µM (inactive) in the experiment on ACHN; 1.47 µM (inactive) with CCRF-CEM; 3.01 µM (inactive) with HCC 2998; 6.15 µM (inactive) with K562; 13.7 µM (inactive) with M14. Also, the GI50 in the experiment on MCF7 is 2.28 µM (inactive); in the experiment on MDA-MB-231, 29.4 µM (inactive); with NCI-H23, 8.18 µM (inactive); with NCI-H460 it was 0.531 µM (active); with NCI-H522, 12.3 µM (inactive); in the experiment with OVCAR-4, 14.1 µM (inactive). For the same compound, the GI50 in the experiment with OVCAR-5 is 34 µM (inactive); in the experiment with PC-3, 15.5 µM (inactive); in the experiment on SF-295, 6.71 µM (inactive); with SNB-75, 14.9 µM (inactive); in the experiment with T47D, 18.3 µM (inactive); in the experiment on UACC-257 it was 14.7 µM (inactive). Besides, in the experiment on UO-31, the GI50 is 7.48 µM (inactive).
